{"source": "patent US10966943B2", "about": "“Methods and compositions for treatment of asthma or parkinson's disease” (InnoPharmaScreen Inc., priority 2018, dated 2021)", "key": {"OVA-challenged mice": {"test_system": "OVA-challenged mice", "assay": "OVA-induced asthma in mice (BAL fluid, IgE, lung histology)", "type": "in vivo", "description": "25 mg Ovalbumin (OVA) and 1 mg aluminum hydroxide hydrate (AlOH3) were dissolved in […] of sterile saline solution and sensitized by intraperitoneal administration at 0 and 21 days. At the end of the observation period, all living animals were anesthetized using Isoflurane, and blood was collected from the vena cava/abdominal aorta. Lungs are removed and washed with sterile saline solution. […] of sterile saline was filled in a 1 mL syringe, and the injection and recovery were repeated three times. The washed solution was lightly centrifuged (300 rpm, 10 minutes) and the supernatant was frozen and used for analysis of CXCL1 (ab216951, Abcam PLC) IL-17A (ab199081, Abcam PLC) and CCL3 (ab100726, Abcam PLC). The precipitate was resuspended in the same amount of sterile saline solution and used for eosinophil count and total cell count. The collected blood was left at room temperature for 30 minutes and centrifuged at 3,000 rpm for 20 mins. to separate serum and used for total IgE and Ova-specific IgE analysis. Histopathological examination was performed using lung tissue fixed in formalin. Lung tissues extracted at autopsy were placed in a cassette and submerged in 10% Neutral buffered formalin (10% NBF) at least 20 times the tissue volume. After fixation, the tissue was cut to about 4 mm in thickness and fabricated into paraffin blocks after general tissue treatment and embedding. […]"}, "[1]": {"assay": "Mast cell number and serum IgE level", "type": "in vivo", "settings": "FIG. 8"}, "[2]": {"test_system": "TSLP (Thymic Stromal Lymphopoietin)", "assay": "TSLP expression in DNCB mice", "type": "in vivo", "settings": "DNCB (2,4-dinitrochlorobenzene) mice; FIG. 7"}, "[3]": {"test_system": "TSLP (Thymic Stromal Lymphopoietin)", "assay": "TSLP expression in HMC-1 cells", "type": "cell-based, human", "settings": "FIG. 7"}, "MPTP-injected mice": {"test_system": "MPTP-injected mice", "assay": "MPTP-induced Parkinson's disease mice (pole test, TH, IL-1b)", "type": "in vivo", "description": "For 1-methyl-4-phenyl-1,2,3,6-tetrahydropyridine (MPTP) intoxication, the mice received four intraperitoneal (i.p.) injections of MPTP-HCl (20 mg/kg, free base in saline; Sigma-Aldrich, St. Louis, Mo.) dissolved in PBS at 2 h intervals. Twelve hours after the last MPTP injection, the MPTP-injected mice were received IPS-07004, Montelukast, or IPS-07005 once daily through p.o. administrations.\nTo examine the effect of IPS-07004 on abnormal behavior of PD mice, Pole test (T-turn and T-LA time) was carried out. PD was induced in mice treated with MPTP (20 mg/kg, I.P) and the mice were administered with IPS-07004 at a dose of 10 mg/kg. And then pole test was performed in the mice. which can measure bradykinesia, a hallmark of Parkinson's disease. The T-turn measures the time the black mouse turns down from the top of the pole. IPS-07004 reduced the T-turn and T-LA time compared with MPTP-treated control group and L-Dopa-treated group, as shown in FIG. 18."}, "[4]": {"test_system": "A549 lung carcinoma cells", "assay": "In vitro cell viability assay (MTT)", "type": "cell-based, human", "settings": "IPS-07004 for 24 hrs, FIG. 1", "description": "A549 lung carcinoma cells (1×10^3/well) were seeded on a 96-well plate for 16 hrs. After starvation for 24 hrs., the cells were pretreated with LPS or IL-1b for 4 hrs. The cells were then treated with IPS-07004 for 24 hrs. in a dose-dependent manner. After 48 hrs. of incubation, MTT [3-(4,5-dimethylthiazol-2-yl)-2,5-diphenyl-tetrazolium bromide] solution (5 mg/ml) was added to each well in an amount of 1/10 of total volume, and the cells were incubated for 2 hrs. at 37° C.\nTo examine the survival rate for A549 cells treated with IPS-07004, an in vitro cell viability assay was performed using MTT."}, "IL-8": {"test_system": "IL-8", "assay": "ELISA of IL-8 in A549 cells induced by LPS or IL-1beta", "type": "cell-based, human", "settings": "dose-dependent", "description": "(§1) A549 cells (1×10^5/well) were seeded on a 96-well plate for 16 hrs. After starvation for 24 hrs., the cells were pretreated with LPS or IL-1beta for 4 hrs. The cells were then treated with IPS-07004 for 24 hrs. in a dose-dependent manner. Cytokines levels (IL-6 and IL-8) in media were analyzed in accordance with the manufacturer's specification (BD Biosciences Pharmingen, San Diego, Calif., USA).\n(§2) To assess whether IPS-07004 inhibits the expression of IL-6 and IL-8, which play a critical role in asthma pathology, ELISA of the cytokines in A549 cells was employed."}, "IL-6": {"test_system": "IL-6", "assay": "ELISA of IL-6 in A549 cells induced by LPS or IL-1beta", "type": "cell-based, human", "settings": "dose-dependent", "description": "as §1, §2"}, "human Caspase-1": {"target": "T1, human Caspase-1 (Homo sapiens, UniProt P29466)", "T1 construct": "endogenous in cells; host or cells: HMC-1 (human mast cell line)", "T1 sequence (P29466 120-404)": "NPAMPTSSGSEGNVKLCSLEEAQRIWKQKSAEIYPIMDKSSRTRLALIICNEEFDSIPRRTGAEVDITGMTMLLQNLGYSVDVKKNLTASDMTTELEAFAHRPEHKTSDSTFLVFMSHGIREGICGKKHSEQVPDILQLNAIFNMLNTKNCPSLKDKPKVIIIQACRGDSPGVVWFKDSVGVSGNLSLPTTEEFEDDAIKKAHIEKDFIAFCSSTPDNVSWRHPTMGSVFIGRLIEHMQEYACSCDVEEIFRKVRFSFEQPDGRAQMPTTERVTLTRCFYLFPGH", "assay": "Caspase-1 activity in HMC-1 cell-based assay", "settings": "HMC-1 cells; FIG. 7, FIG. 9", "description": "Using HMC-1 (human mast cell line) cell-based assay, IPS-07005 ((IPS-07004+Montelukast) inhibited the activity of Caspase-1, a critical component of inflammasome, to suppress the conversion of Pro-TSLP, IL-1beta, and -IL-18 to active forms as shown in FIG. 9."}, "[5]": {"settings": "MPTP (20 mg/kg, I.P) mice, 10 mg/kg, compared with MPTP-treated control group and L-Dopa-treated group, FIG. 18"}, "[6]": {"settings": "A549 cells induced by LPS, FIG. 2"}}, "note": "“Also recorded” adds a separate entry of the source."}
{"smiles": "CC(C)(O)c1ccccc1CC[C@@H](SCC1(CC(=O)O)CC1)c1cccc(/C=C/c2ccc3ccc(Cl)cc3n2)c1", "note": "[Montelukast, montelukast]", "values": [{"measurement": "number of goblet cells (PAS staining of lung sections)", "setting": "OVA-challenged mice; high dose of Montelukast, versus OVA-challenged group, FIGS. 15A and 15B", "result": "significantly lower"}]}
{"smiles": "[H]/N=C(\\N/C(=N/[H])Nc1ccc(Cl)cc1)NC(C)C", "note": "[IPS-07004, proguanil]", "values": [{"measurement": "mast cell number", "setting": "[1]", "result": "inhibitory effect"}, {"measurement": "serum IgE level", "setting": "[1]", "result": "inhibitory effect"}, {"measurement": "TSLP expression", "setting": "[2]", "result": "inhibitory effect"}, {"measurement": "TSLP expression", "setting": "[3]", "result": "inhibitory effect"}, {"measurement": "Pole test T-LA time", "setting": "MPTP-injected mice; [5]", "result": "reduced"}, {"measurement": "Pole test T-turn time", "setting": "MPTP-injected mice; [5]", "result": "reduced"}, {"measurement": "tyrosine hydroxylase (TH) level in striatum and Substantia nigra (immunohistochemistry)", "setting": "MPTP-injected mice; PD mice brain, compared with MPTP-treated control group and L-Dopa-treated group, FIG. 19", "result": "decreased"}, {"measurement": "IL-1b expression in PD brain", "setting": "MPTP-injected mice; PD mice, FIG. 20", "result": "reduced"}, {"measurement": "viability of A549 cells (MTT)", "setting": "[4]; cells induced by IL-1beta", "result": "little or no effect"}, {"measurement": "viability of A549 cells (MTT)", "setting": "[4]; cells induced by LPS", "result": "little or no effect"}, {"measurement": "expression level of IL-8", "setting": "IL-8; A549 cells induced by IL-1beta", "result": "reduced"}, {"measurement": "expression level of IL-8", "setting": "IL-8; [6]", "result": "reduced"}, {"measurement": "expression level of IL-6", "setting": "IL-6; A549 cells induced by IL-1beta", "result": "reduced"}, {"measurement": "expression level of IL-6", "setting": "IL-6; [6]", "result": "reduced"}, {"measurement": "eosinophil number in BALF", "setting": "OVA-challenged mice; compared with the OVA-challenged group, FIGS. 13B, 13C", "result": "decreased"}, {"measurement": "Caspase-1 activity", "setting": "human Caspase-1", "result": "inhibitory effect; also recorded: inhibited"}]}
